Measurements reported in patent publication US20200113902A1, “COMPOSITIONS AND METHODS FOR TREATING CANCERS WITH COVALENT INHIBITORS OF CYCLIN-DEPENDENT KINASE 7 (CDK7)” (Syros Pharmaceuticals, Inc., priority 2017, published 2020).

Legend:
[1] = system: gene expression in MDA-MB468 cells; test: Gene expression profiling via RNA-seq (DESeq2, linear model), MDA-MB468; format: cell-based; conditions: four hours, JQ1 125 nM, Compound 1 25 nM
Method: (§1) In addition, we compared the ability of JQ1 alone, Compound 1 alone, and a combination of JQ1 and Compound 1 to modify expression of various genes in two breast cancer cell lines. Two triple-negative breast cancer cell lines (HCC70 and MDA-MB468) were tested. The cell lines were treated with JQ1, Compound 1, the JQ1/Compound 1 combination, or DMSO for four hours, after which gene expression profiling via RNA-seq was performed. JQ1 was administered to the cells at a 125 nM final concentration in both single agent and combination experiments. Compound 1 was administered to the cells at a 25 nM final concentration in both single agent and combination experiments. Each experiment was performed in triplicate. One replicate of MDA-MB-468 treated with single-agent JQ1 was excluded from further analysis due to quality.
(§2) We employed DESeq2 (Love et al., Genome Biology, 15(12):550, 2014) to identify changes in gene expression due to the JQ1, Compound 1, and JQ1-Compound 1 combination treatment compared to the control DMSO condition based on the RNA-seq data. Genes resulting in a p-value below 0.01 and an absolute logFoldChange above 0.5 were considered to be differentially expressed. […] The same is true for 1459 of 2414 genes in MDA-MB468.
(§3) To identify the genes whose expression is impacted synergistically by the drug combination, we modeled the effect of each drug treatment on expression using a linear model. The expression of each gene after the combination treatment can be thought of as the combined impact of Compound 1, JQ1, and any synergistic interaction between the drug treatments on baseline gene expression. A linear model used to describe this relationship could therefore be represented as:
(§4) Gene Expression after combination treatment=Baseline Expression+Compound 1 effect+JQ1 effect+Combination effect (Synergistic Impact)
(§5) By fitting the expression data for each gene using this model, we were able to evaluate the effect of each treatment, and identify cases where a synergistic interaction between Compound 1 and JQ1 impacts final gene expression. After fitting the linear model to each gene, the weight and p-value of each term can be evaluated. The combination term's weight signifies the mean change resulting from a synergetic impact on expression, with a negative weight indicating synergistic downregulation. Its associated p-value represents the probability that the combination term is not relevant to final gene expression. Using this approach, we identified 1806 genes in HCC70 and 2205 genes in MDA-MB468 whose expression change in the combination treatment was synergistic and whose associated p-value was less than a threshold cutoff of 0.01. The expression of these synergistic genes could not be explained by an additive effect of Compound 1 and JQ1 alone.

[2] = system: gene expression in HCC70 cells; test: Gene expression profiling via RNA-seq (DESeq2, linear model), HCC70; format: cell-based; conditions: four hours, JQ1 125 nM, Compound 1 25 nM
Method: as §1, §2, §3, §4, §5

[3] = system: HR^+ breast cancer cell lines; conditions: several HR^+ breast cancer cell lines; cited from earlier work

SMILES: Cc1sc2c(c1C)C(c1ccc(Cl)cc1)=N[C@@H](CC(=O)OC(C)(C)C)c1nnc(C)n1-2 [JQ1, reference compound]
- Average Expression (TPM) FOXC1 ([1]; DMSO 33.731): 37.112 TPM
- Average Expression (TPM) GATA3 ([1]; DMSO 34.244): 32.491 TPM
- Average Expression (TPM) TGIF1 ([1]; DMSO 145.88): 151.60 TPM
- Average Expression (TPM) GATA3 ([2]; DMSO 32.685): 29.574 TPM
- Average Expression (TPM) FOXC1 ([2]; DMSO 40.481): 40.529 TPM
- Average Expression (TPM) TGIF1 ([2]; DMSO 62.523): 52.509 TPM

SMILES: CN(C)C/C=C/C(=O)Nc1ccc(C(=O)Nc2cccc(Nc3ncc(Cl)c(-c4c[nH]c5ccccc45)n3)c2)cc1 [THZ-1]
- In vitro synergy with fulvestrant [3]: synergy
